Test results: ChEMBL document CHEMBL5226288, “A perspective on medicinal chemistry approaches towards adenomatous polyposis coli and Wnt signal based colorectal cancer inhibitors” (Eur J Med Chem, 2021)
Each block holds one molecule with its values, some of them ahead of it. Non-standard residues stand in square brackets, D forms with d. Residues, ends and D or L forms follow the SMILES beside them. *: point of attachment. Ala(cPent) = N[C@@H](CC1CCCC1)C(=O)O; Cbz = O=C(OCc1ccccc1)*

Tests used:
[1] = Inhibition of Wnt/beta-catenin signaling pathway in mouse L Wnt-3A cells harbouring STF-reporter gene assessed as assessed as reduction in luciferase activity incubated for 24 hrs by luciferase reporter assay; format: cell-based
SW480 [2] = assay: Anticancer activity against human SW480 cells assessed as reduction in cell viability; format: functional, cell-based
HCT-116 [3] = assay: Antiproliferative activity against human HCT-116 cells assessed as reduction in cell proliferation incubated for 72 hrs by MTS assay; format: functional, cell-based; conditions: HCT-116, 72 h
DLD-1 [4] = assay: Anticancer activity against human DLD-1 cells assessed as reduction in cell viability incubated for 24 hrs by Cell Titer-Glo assay; format: functional, cell-based; conditions: DLD-1, 24 h
HCT-116 [5] = assay: Anticancer activity against human HCT-116 cells assessed as reduction in cell viability incubated for 24 hrs by Cell Titer-Glo assay; format: functional, cell-based; conditions: HCT-116, 24 h
HCT-116 [6] = assay: Anticancer activity against human HCT-116 cells assessed as reduction in cell viability; format: functional, cell-based
[7] = target: 3-beta-hydroxysteroid-Delta(8),Delta(7)-isomerase (Homo sapiens, UniProt Q15125); assay: Inhibition of EBP (unknown origin)
3-beta-hydroxysteroid-Delta(8),Delta(7)-isomerase, sequence (Q15125 whole entry): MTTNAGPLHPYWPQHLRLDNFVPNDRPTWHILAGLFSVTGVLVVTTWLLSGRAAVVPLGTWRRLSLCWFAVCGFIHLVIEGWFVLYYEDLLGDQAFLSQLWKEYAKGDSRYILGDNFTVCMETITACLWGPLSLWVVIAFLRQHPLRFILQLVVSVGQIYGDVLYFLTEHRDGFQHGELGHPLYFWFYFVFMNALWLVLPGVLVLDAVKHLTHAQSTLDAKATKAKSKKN

[8] = target: T1, 7-dehydrocholesterol reductase (Homo sapiens, UniProt Q9UBM7); assay: Inhibition of DHCR7 (unknown origin)
T1 sequence (Q9UBM7 whole entry): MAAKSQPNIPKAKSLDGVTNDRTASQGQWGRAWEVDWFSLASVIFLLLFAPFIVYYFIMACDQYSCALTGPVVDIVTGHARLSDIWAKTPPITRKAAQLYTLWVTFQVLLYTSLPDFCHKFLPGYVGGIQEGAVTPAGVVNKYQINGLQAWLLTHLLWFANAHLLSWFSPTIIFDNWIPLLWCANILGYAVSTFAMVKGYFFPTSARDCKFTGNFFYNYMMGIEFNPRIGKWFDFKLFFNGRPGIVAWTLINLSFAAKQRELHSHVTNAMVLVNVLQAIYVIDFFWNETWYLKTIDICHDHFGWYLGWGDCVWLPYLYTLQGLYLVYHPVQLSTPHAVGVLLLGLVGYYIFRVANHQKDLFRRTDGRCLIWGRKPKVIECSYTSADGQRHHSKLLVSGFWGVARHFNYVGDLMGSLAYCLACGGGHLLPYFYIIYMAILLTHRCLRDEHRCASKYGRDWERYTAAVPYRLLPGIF

SW480 [9] = assay: Anticancer activity against human SW480 cells assessed as cell growth inhibition by SRB assay; format: functional, cell-based
DLD-1 [10] = assay: Anticancer activity against human DLD-1 cells assessed as cell growth inhibition by SRB assay; format: functional, cell-based
DNA polymerase beta = DNA polymerase beta (Homo sapiens, UniProt P06746); assay: Inhibition of human DNA polymerase beta using 32P-labeled 63-mer F-DNA substrate preincubated for 5 mins followed by substrate addition and measured after 45 mins by autoradiography
[11] = target: T2, Adenomatous polyposis coli protein (Homo sapiens, UniProt P25054); assay: Inhibition of APC (303 to 739 residues) (unknown origin) preincubated for 60 mins followed by substrate addition and measured after 60 mins using Ac-GGGGEQLAINELISDGK-FITC as substrate by fluorescence polarization assay
T2 sequence (P25054 whole entry, the tested form may be a part): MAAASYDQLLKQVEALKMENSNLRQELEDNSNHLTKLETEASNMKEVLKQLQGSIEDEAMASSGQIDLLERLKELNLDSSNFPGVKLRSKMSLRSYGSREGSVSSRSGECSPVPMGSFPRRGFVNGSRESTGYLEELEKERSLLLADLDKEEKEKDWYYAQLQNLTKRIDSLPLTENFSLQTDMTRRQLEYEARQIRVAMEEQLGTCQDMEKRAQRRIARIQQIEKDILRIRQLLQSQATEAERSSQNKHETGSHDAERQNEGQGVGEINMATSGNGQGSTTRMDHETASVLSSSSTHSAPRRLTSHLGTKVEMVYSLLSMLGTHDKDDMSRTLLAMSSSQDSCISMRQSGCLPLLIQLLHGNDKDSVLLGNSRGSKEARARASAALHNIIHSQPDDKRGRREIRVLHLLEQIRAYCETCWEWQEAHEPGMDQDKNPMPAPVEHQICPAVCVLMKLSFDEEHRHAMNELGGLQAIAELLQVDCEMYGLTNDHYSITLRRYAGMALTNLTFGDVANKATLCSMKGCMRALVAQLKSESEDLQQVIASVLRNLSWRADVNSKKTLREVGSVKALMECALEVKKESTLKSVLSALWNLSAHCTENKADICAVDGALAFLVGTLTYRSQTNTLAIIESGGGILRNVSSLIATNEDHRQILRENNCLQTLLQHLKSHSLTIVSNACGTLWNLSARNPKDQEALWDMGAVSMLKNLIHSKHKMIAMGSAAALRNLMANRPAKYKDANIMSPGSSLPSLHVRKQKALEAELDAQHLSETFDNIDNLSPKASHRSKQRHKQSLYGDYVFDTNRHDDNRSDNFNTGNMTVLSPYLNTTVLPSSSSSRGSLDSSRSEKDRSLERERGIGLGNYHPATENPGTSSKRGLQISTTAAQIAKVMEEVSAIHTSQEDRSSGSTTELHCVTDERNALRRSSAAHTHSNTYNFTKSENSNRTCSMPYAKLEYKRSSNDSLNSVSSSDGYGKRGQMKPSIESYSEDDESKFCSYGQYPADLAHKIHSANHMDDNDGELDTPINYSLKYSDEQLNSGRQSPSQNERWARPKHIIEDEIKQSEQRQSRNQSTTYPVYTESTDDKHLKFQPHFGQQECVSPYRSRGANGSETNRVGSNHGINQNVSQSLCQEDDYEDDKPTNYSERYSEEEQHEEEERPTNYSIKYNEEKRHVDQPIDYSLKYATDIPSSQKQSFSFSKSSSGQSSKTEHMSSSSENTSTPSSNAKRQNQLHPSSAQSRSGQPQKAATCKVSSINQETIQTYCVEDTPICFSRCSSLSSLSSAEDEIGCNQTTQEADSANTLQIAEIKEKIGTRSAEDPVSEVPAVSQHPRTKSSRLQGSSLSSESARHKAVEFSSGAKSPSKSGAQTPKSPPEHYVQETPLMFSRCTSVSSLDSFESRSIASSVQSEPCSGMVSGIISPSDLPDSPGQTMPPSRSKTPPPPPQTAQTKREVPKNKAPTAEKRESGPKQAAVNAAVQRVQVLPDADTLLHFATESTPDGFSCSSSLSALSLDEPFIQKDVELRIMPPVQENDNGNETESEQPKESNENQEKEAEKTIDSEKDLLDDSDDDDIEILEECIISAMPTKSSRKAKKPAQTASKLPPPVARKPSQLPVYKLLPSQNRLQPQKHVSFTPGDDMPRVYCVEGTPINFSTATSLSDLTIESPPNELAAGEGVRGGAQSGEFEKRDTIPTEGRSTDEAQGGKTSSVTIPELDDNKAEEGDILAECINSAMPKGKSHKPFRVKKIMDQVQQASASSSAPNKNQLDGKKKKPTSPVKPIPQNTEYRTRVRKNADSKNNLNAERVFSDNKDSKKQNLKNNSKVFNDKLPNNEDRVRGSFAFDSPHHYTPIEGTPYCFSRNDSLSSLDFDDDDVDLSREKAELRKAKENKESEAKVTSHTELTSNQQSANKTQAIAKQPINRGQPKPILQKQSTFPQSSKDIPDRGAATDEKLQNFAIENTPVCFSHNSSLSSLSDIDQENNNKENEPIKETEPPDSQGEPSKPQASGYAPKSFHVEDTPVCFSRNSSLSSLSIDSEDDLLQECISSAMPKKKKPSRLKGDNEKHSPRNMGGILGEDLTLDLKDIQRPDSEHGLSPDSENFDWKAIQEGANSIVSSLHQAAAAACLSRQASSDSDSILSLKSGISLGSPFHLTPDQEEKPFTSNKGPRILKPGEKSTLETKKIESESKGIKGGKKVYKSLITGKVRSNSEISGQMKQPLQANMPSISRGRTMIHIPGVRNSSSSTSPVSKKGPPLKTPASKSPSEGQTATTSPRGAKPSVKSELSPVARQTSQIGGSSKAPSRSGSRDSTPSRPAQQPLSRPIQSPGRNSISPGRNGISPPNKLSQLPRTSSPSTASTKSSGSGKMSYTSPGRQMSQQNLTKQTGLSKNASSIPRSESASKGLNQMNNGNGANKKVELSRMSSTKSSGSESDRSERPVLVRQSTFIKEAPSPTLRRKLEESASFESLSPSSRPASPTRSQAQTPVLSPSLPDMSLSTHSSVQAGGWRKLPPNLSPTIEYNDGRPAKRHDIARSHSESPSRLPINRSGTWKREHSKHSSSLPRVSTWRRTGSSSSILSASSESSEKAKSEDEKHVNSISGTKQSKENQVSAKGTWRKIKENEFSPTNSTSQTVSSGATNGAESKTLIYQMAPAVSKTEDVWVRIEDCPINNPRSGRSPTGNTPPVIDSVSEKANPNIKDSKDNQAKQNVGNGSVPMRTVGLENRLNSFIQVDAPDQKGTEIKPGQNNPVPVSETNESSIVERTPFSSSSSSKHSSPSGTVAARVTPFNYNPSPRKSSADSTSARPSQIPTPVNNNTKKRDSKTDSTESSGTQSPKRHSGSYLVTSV

[12] = target: T2, Adenomatous polyposis coli protein; assay: Inhibition of APC (303 to 739 residues) (unknown origin) assessed as inhibition constant preincubated for 60 mins followed by substrate addition and measured after 60 mins using Ac-GGGGEQLAINELISDGK-FITC as substrate by fluorescence polarization assay

IC50 [1]: 58 nM
Molecule: COc1ccc(-n2nc(C(=O)NCC(=O)Nc3nc4ccc(OC)cc4s3)c3ccccc3c2=O)cc1

IC50 (HCT-116 [6]): 8 nM | IC50 (SW480 [2]): 15 nM
Molecule: CN1CCN(S(=O)(=O)c2ccc(N3CCCC3=O)cc2)c2ccccc21

IC50 [7]: 9.36 nM | IC50 [8]: 1390 nM
Molecule: Cc1cc(C)c(S(=O)(=O)N2CCC(N3CCCCCC3)CC2)c(C)c1

IC50 (HCT-116 [6]): 28800 nM | IC50 (SW480 [2]): 10800 nM
Molecule: CCOC(=O)C[C@H](NC(=O)[C@H](Cc1c[nH]c2ccccc12)NC(=O)Cc1cc2cc(C)ccc2[nH]1)C(=O)N[C@@H](CCC(=O)O)C(=O)OC

IC50 (SW480 [9]): 600 nM | IC50 (DLD-1 [10]): 1000 nM
Molecule: Cc1cc(C(=O)N/N=C\c2ccccc2O)c2cc(Br)ccc2n1

IC50 [7]: 188 nM | IC50 [8]: 2040 nM
Molecule: Cc1cc(C)c(S(=O)(=O)N2CCC(N3CN4CCC3CC4)CC2)c(C)c1

IC50 (DNA polymerase beta): < 50000 nM
Molecule: Cc1cc(C)c(S(=O)(=O)Nc2n[nH]c(Nc3ccccc3)n2)cc1C

IC50 (HCT-116 [6]): < 50000 nM
Molecule: NC1=NC(=O)N(C2CC(O)C(COP(=O)(O)O)O2)C(I)C1 (configuration not stated)

IC50 (SW480 [9]): 900 nM | IC50 (DLD-1 [10]): 500 nM
Molecule: CC/C(=N/NC(=O)c1ccnc(NCCN2CCOCC2)c1)c1ccc(C)cc1O

IC50 [1]: 40 nM
Molecule: COc1ccccc1-n1nc(C(=O)NCC(=O)Nc2nc3ccc(C)cc3s2)c2c(c1=O)SCC2

IC50 [7]: 303 nM | IC50 [8]: 50000 nM
Molecule: Cc1cc(C)c(S(=O)(=O)N2CCC([N+]3(C)CCCC3)CC2)c(C)c1

IC50 (SW480 [9]): 1700 nM | IC50 (DLD-1 [10]): 900 nM
Molecule: CC/C(=N/NC(=O)c1ccccc1)c1cc(C)cc(C)c1O

IC50 [11]: 570 nM | Ki [12]: 15 nM
Molecule: C[C@H](NC(=O)OCc1ccccc1)C(=O)NCC(=O)N[C@@H](CCC(=O)O)C(=O)N[C@@H](C)C(=O)N[C@@H](CC1CCCC1)C(=O)N[C@@H](Cc1ccc(O)cc1)C(=O)N[C@@H](CCC(=O)O)C(=O)O (Cbz-AGEA[Ala(cPent)]YE-OH)

IC50 (DLD-1 [4]): 1250 nM | IC50 (HCT-116 [5]): 950 nM
Molecule: Cn1cnc2c(F)c(Nc3ccc(Br)cc3Cl)c(C(=O)NOCCO)cc21 [SELUMETINIB]

IC50 (DLD-1 [4]): 1340 nM | IC50 (HCT-116 [5]): 1160 nM
Molecule: CC(=O)Nc1cccc(-n2c(=O)n(C3CC3)c(=O)c3c(Nc4ccc(I)cc4F)n(C)c(=O)c(C)c32)c1 [TRAMETINIB]

IC50 [11]: 12200 nM | Ki [12]: 3800 nM
Molecule: Ac-GGEALAD-OH

IC50 [11]: 10100 nM | Ki [12]: 3120 nM
Molecule: Ac-GGEALAW-OH

Further lines, the molecule ahead of its results:

Molecule: O=C1Nc2ccccc2C12OCC1(CO2)COC2(OC1)C(=O)Nc1ccccc12 (configuration not stated)
IC50 (SW480 [2]): 690 nM

Molecule: CCCC(=O)c1cc2c(c(O)c1C)C(=O)C(=O)c1c(O)cccc1-2
IC50 (HCT-116 [3]): 780 nM

Molecule: N#CC(=C(/N)Sc1ccccc1N)/C(C#N)=C(\N)Sc1ccccc1N
IC50 (DLD-1 [4]): 1140 nM | IC50 (HCT-116 [5]): 940 nM

Molecule: COC(=O)c1cccc(NS(=O)(=O)c2ccc(C)cc2)c1
IC50 (HCT-116 [6]): 580 nM

Molecule: COc1c(C[C@@H](C)OC(=O)c2c(C)cc(O)cc2O)c2c3c(C[C@@H](C)OC(=O)c4c(C)cc(O)cc4O)c(OC)c(=O)c4c(O)cc(OC)c(c5c(OC)cc(O)c(c1=O)c52)c43
IC50 (HCT-116 [3]): 3600 nM

Molecule: Cc1cc(SC(=O)O)c(S(=O)(=O)Nc2n[nH]c(Nc3ccccc3)n2)cc1C
IC50 (DNA polymerase beta): < 50000 nM

Molecule: Cc1cc(C)c(S(=O)(=O)Nc2n[nH]c(Nc3ccc4ccccc4c3)n2)cc1C
IC50 (DNA polymerase beta): < 50000 nM

Molecule: Cc1ccc(-n2nc(C(=O)NCC(=O)Nc3nc4ccc(C)cc4s3)c3c(c2=O)SCC3)cc1
IC50 [1]: 25 nM

Molecule: Cc1ccc2nc(NC(=O)CNC(=O)c3nn(-c4ccccc4)c(=O)c4c3CCS4)sc2c1
IC50 [1]: 27 nM

Molecule: COc1cccc(Nc2nc(NS(=O)(=O)c3cc(C)c(C)cc3C)n[nH]2)c1
IC50 (DNA polymerase beta): < 50000 nM

Molecule: Cc1ccc(-c2ccc(S(=O)(=O)N3CCC(N4CCC(C)CC4)CC3)cc2)cc1
IC50 [7]: 49 nM | IC50 [8]: 0.1 nM

Molecule: COC(=O)c1c(C)cc2c(c1O)[C@]1(O)C(=O)c3cc4c(c(O)c3C(=O)[C@]1(OC)[C@H](O)C2)C(=O)C=C(N[C@H]1O[C@@H](C)[C@H](OC)[C@@H](O)[C@H]1OC)C4=O
IC50 (HCT-116 [3]): < 150 nM

Molecule: CC1CCN(C2CCN(S(=O)(=O)c3ccc(OC(C)C)cc3)CC2)CC1
IC50 [7]: < 1000 nM | IC50 [8]: 30 nM

Molecule: Cc1cc(C)c(S(=O)(=O)N2CCC(NCc3ccccc3)CC2)c(C)c1
IC50 [7]: 2.95 nM | IC50 [8]: 1070 nM

Molecule: Cn1ncnc2c(=O)n(C)c(=O)nc1-2
IC50 (HCT-116 [3]): 2860 nM

Molecule: CC(C)C[C@H](NC(=O)[C@H](C)NC(=O)[C@H](CCC(=O)O)NC(=O)CNC(=O)[C@H](C)NC(=O)OCc1ccccc1)C(=O)N[C@@H](Cc1ccc(O)cc1)C(=O)N[C@@H](CCC(=O)O)C(=O)O (Cbz-AGEALYE-OH)
IC50 [11]: 1090 nM | Ki [12]: 120 nM

Molecule: COc1c(C[C@@H](C)OC(=O)Oc2ccc(O)cc2)c2c3c(C[C@@H](C)OC(=O)c4ccccc4)c(OC)c(=O)c4c(O)cc(OC)c(c5c(OC)cc(O)c(c1=O)c52)c43 [CALPHOSTIN C]
IC50 (HCT-116 [3]): 2860 nM

Molecule: Cn1nnc2c(C(N)=O)ncn2c1=O [TEMOZOLOMIDE]
IC50 (HCT-116 [6]): < 50000 nM

Molecule: Ac-AGEALAD-OH
IC50 [11]: 7970 nM | Ki [12]: 2410 nM

Molecule: H-GGEQLAI-OH
IC50 [11]: 135000 nM | Ki [12]: 44600 nM
